# From patent publication US20260077009A1, “COMPOSITIONS AND METHODS FOR TREATING NEUROLOGICAL DISORDERS” (Neurotech International Ltd, priority 2021, published 2026)
# Legend:
# [1] = Stability of NTI164 in oil at room temperature (UPLC, weekly assay, CBDA as marker)
# neurons = assay: Cell death in an excitotoxic cell injury paradigm; assay type: cell-based; conditions: excitotoxic cell injury paradigm (glutamate 3 mM); 2 μg/ml
# Procedure: Neuronal viability was quantified using MTT [3-(4,5-dimethylthiazol-2-yl-)-2,5-diphenyl-2H-tetrazolium bromide; Sigma]. […] Cellular excitotoxicity was achieved via glutamate activation (3 mM).
# IL-12 = assay: Multiplex cytokine/chemokine assay, IL-12; assay type: cell-based, human; conditions: 2 μg/ml; Interleukin and Interferon activation; control 99.91
# Procedure: (§1) Multiplex Cytokine/Chemokine Assay: Microglia media harvested following treatment initiation was centrifuged briefly to remove particulates (300 g for 10 min). Cytokine and chemokine levels in the microglial media were measured using a Bio-Plex 200 with a 96-well magnetic plate assay according to the manufacturer's instructions (Bio-Rad). Cytokines and chemokines measured included IL-1α, IL-1β, IL-2, IL-6, IL-10, IL-12 (p70), IL-13, G-CSF, GM-CSF, IFNγ, TNFα, CXCL1 (KC), CCL2 (MCP-1), and CCL5 (RANTES). All samples were run in duplicate and data were analyzed with the Bio-Plex Manager software.
# (§2) The tubes are then placed in a sonication bath for 10 mins at 35-40 C. Upon completion of the sonication samples are then placed in a tray shaker (200 rpm) for 30 minutes at room temperature. Once completed the samples are then centrifuged at 4400 rpm for 5 minutes. The supernatant is collected for testing and development.
# (§3) For the CBD sample, a pure standard (in powder form) was used. CBD 98% isolate was purchased as a reference standard from LGC Standards (London UK) (CAS No. 13956-29-1). The CBD standard reference was prepared at concentration of 1 mg/ml (in acetonitrile). CBD dilutions were made in acetonitrile as follows: 2 μg/ml; 6 μg/ml; and 0.1 μg/ml.
# COX-2 = COX-2 immunohistochemistry (protein level) assay in microglial cells; assay type: cell-based, human; conditions: 2 μg/ml, N=9
# Procedure: Immunohistochemistry (Protein Level) Assay: Cells were fixed for 10 min with 4% paraformaldehyde (PFA) in PBS. After 3×5 minutes washing with PBS, cells were incubated with primary antibodies (anti-COX2) 1:1000 overnight at 4° C., and after 3×5 minutes washing in PBS, cells were then incubated in appropriate fluorescent secondary antibody 1:250 (Invitrogen) for 2 hours at room temperature. After a final wash, as previous, cells nuclei were sained with DAPI in the mounting media. Photomicrographs were taken of the cells in three fields of view per well from duplicate wells and analysed using Fiji for area coverage of each marker.
# as §2, §3
# TNF-alpha = assay: Multiplex cytokine/chemokine assay, TNF-alpha; assay type: cell-based, human; conditions: 2 μg/ml; Interleukin and Interferon activation
# Procedure: as §1, §2, §3
SMILES,Cannabinoid concentration in NTI164 (sample 28206-7) ([1]; Day 0 (13 Jul. 2021)),Cannabinoid concentration in NTI164 (sample 28206-7) ([1]; Day 2 (15 Jul. 2021)),Cannabinoid concentration in NTI164 (sample 28206-7) ([1]; Day 7 (20 Jul. 2021)),Cannabinoid concentration in NTI164 (sample 28206-7) ([1]; Day 14 (29 Jul. 2021)),Cannabinoid concentration in NTI164 (sample 28206-7) ([1]; Day 28 (12 Aug. 2021)),Cannabinoid concentration in NTI164 (sample 28206-7) ([1]; Week 5 (19 Aug. 2021)),Cannabinoid concentration in NTI164 (sample 28206-7) ([1]; Week 6 (27 Aug. 2021)),Cannabinoid concentration in NTI164 (sample 28206-7) ([1]; Week 32 (12 Sep. 2022)),Cell death / toxicity (neurons),"IL-12, Average +/- Standard Deviation (SD) (IL-12)","COX-2 expression, Avg +/- SEM (COX-2; exposure 1 hour after inflammatory insult (Interleukin and Interferon gamma), positive control 104.26)","COX-2 expression, Avg +/- SEM (COX-2; exposure 1 hour prior to inflammatory insult (Interleukin and Interferon gamma), positive control 94.47)","TNF-alpha, Average +/- Standard Deviation (SD) (TNF-alpha)"
"CCCCCc1cc2c(c(O)c1C(=O)O)[C@@H]1C=C(C)CC[C@H]1C(C)(C)O2 [(Tetrahydrocannabinolic acid) (D9-THCA), Tetrahydrocannabinolic acid]",0.66 mg/mL,0.72 mg/mL,0.64 mg/mL,0.69 mg/mL,0.36 mg/mL,0.79 mg/mL,0.73 mg/mL,<0.1 mg/mL,,,,,
"C=C(C)[C@@H]1CCC(C)=C[C@H]1c1c(O)cc(CCCCC)cc1O [CBD, Cannabidiol, reference compound]",0.46 mg/mL,0.56 mg/mL,0.53 mg/mL,0.56 mg/mL,0.54 mg/mL,0.60 mg/mL,0.51 mg/mL,0.48 mg/mL,toxic,84.40 +/− 6.54,76.32 +/− 7.95 (SEM),84.82 +/− 7.65 (SEM),71.13 +/− 12.81
"CCCCCc1cc(O)c2c(c1)OC(C)(CCC=C(C)C)C=C2 (stereo not drawn) [Cannabichrome (CBC), Cannabichrome]",1.23 mg/mL,1.19 mg/mL,1.34 mg/mL,1.22 mg/mL,1.27 mg/mL,1.20 mg/mL,1.15 mg/mL,1.22 mg/mL,,,,,
"C=C(C)[C@@H]1CCC(C)=C[C@H]1c1c(O)cc(CCCCC)c(C(=O)O)c1O [Cannabidiol acid (CBD-A), Cannabidiol acid]",48.16 mg/mL,48.19 mg/mL,48.62 mg/mL,48.09 mg/mL,47.12 mg/mL,48.35 mg/mL,47.56 mg/mL,47.01 mg/mL,,,,,
"C=C(C)[C@@H]1CCC(C)=C[C@H]1c1c(O)cc(CCC)cc1O [Cannabidivarin (CBDV), Cannabidivarin]",<0.1 mg/mL,<0.1 mg/mL,<0.1 mg/mL,<0.1 mg/mL,<0.1 mg/mL,0.10 mg/mL,<0.1 mg/mL,0.13 mg/mL,,,,,
